Reference: US9937214B2, “Lactobacillus crispatus and application thereof” (priority 2013, dated 2018)
Positions of bridges follow the written chain, without caps; N, C: chain ends. Non-standard residues stand in square brackets, D forms with d. Residues, ends and D or L forms follow the SMILES beside them. *: point of attachment. Ileψ(thiazoline)Cys = CC[C@H](C)[C@H](N)C1=N[C@H](C(=O)*)CS1; dOrn = NCCC[C@@H](N)C(=O)O

Tested on: Lactobacillus crispatus 262-1
Experiment: Antibiotic sensitivity test, agar-diffusion paper-disc method; for Inhibition zone diameter: test concentration or dose not given here
Type: cell-based
Settings: for Inhibition zone diameter: paper content/sheet per antibiotic as in Table 3; for Sensitivity determination: T0 generation, three levels: sensitivity, mediation, drug resistance, criteria of reference bacteria; for Sensitivity determination (passage stability test): embodiment 6

| Molecule | Inhibition zone diameter (T0 generation of the strain) [mm] | Sensitivity determination | Inhibition zone diameter (T30 generation of the strain) [mm] | Inhibition zone diameter (T50 generation of the strain) [mm] | Sensitivity determination (passage stability test) | other results |
| --- | --- | --- | --- | --- | --- | --- |
| CC[C@H](C)[C@H](N)C1=N[C@H](C(=O)N[C@@H](CC(C)C)C(=O)N[C@H](CCC(=O)O)C(=O)N[C@H](C(=O)N[C@H]2CCCCNC(=O)[C@H](CC(N)=O)NC(=O)[C@@H](CC(=O)O)NC(=O)[C@H](Cc3cnc[nH]3)NC(=O)[C@@H](Cc3ccccc3)NC(=O)[C@H]([C@@H](C)CC)NC(=O)[C@@H](CCCN)NC2=O)[C@@H](C)CC)CS1 [Bacitracin] ({Ileψ(thiazoline)Cys}-L[dE]IK[dOrn]I[dF]H[dD]N; lactam 4-C) | 0 | drug resistance | 0 | 0 | drug resistance |  |
| Penicillin | 24 | Mediation | 25 | 24 | mediation | Sensitivity determination (listed as penicillin): mediation |
| NC[C@H]1O[C@H](O[C@H]2[C@H](O)[C@@H](O[C@H]3O[C@H](CO)[C@@H](O)[C@H](N)[C@H]3O)[C@H](N)C[C@@H]2N)[C@H](O)[C@@H](O)[C@@H]1O [Kanamycin] | 0 |  | 0 | 0 |  |  |
| CCC[C@@H]1C[C@@H](C(=O)N[C@@H]([C@H]2O[C@H](SC)[C@H](O)[C@@H](O)[C@H]2O)[C@H](C)Cl)N(C)C1 [Clindamycin] | 35 |  | 37 | 36 |  |  |
| Cc1onc(-c2ccccc2)c1C(=O)N[C@@H]1C(=O)N2[C@@H]1SC(C)(C)[C@@H]2C(=O)O [oxacillin] | 9 | Mediation | 10 | 9 | mediation |  |
| CCN1CCN(C(=O)N[C@@H](C(=O)N[C@@H]2C(=O)N3[C@@H]2SC(C)(C)[C@@H]3C(=O)O)c2ccccc2)C(=O)C1=O [Piperacillin] | 35 | Sensitivity | 37 | 35 |  | Sensitivity determination (listed as piperacillin): sensitivity |
| O=C(N[C@H](CO)[C@H](O)c1ccc([N+](=O)[O-])cc1)C(Cl)Cl [Chloramphenicol] | 35 | Sensitivity | 36 | 35 |  | Sensitivity determination (listed as chloromycetin): sensitivity |
| CN[C@H](CC(C)C)C(=O)N[C@H]1C(=O)N[C@@H](CC(N)=O)C(=O)N[C@H]2C(=O)N[C@H]3C(=O)N[C@H](C(=O)N[C@H](C(=O)O)c4cc(O)cc(O)c4-c4cc3ccc4O)[C@H](O)c3ccc(c(Cl)c3)Oc3cc2cc(c3O[C@@H]2O[C@H](CO)[C@@H](O)[C@H](O)[C@H]2O[C@H]2C[C@](C)(N)[C@H](O)[C@H](C)O2)Oc2ccc(cc2Cl)[C@H]1O [Vancomycin] | 26 | Sensitivity | 27 | 26 | mediation | Sensitivity determination (listed as vancomycin): sensitivity |
| CC1(C)S[C@@H]2[C@H](NC(=O)[C@H](N)c3ccccc3)C(=O)N2[C@H]1C(=O)O [Ampicillin] | 24 | Sensitivity | 24 | 25 | mediation | Sensitivity determination (listed as ampicillin): sensitivity |
| Gentamicin | 0 | drug resistance | 0 | 0 | drug resistance |  |
| CN(C)[C@@H]1C(O)=C(C(N)=O)C(=O)[C@@]2(O)C(O)=C3C(=O)c4c(O)cccc4[C@@](C)(O)[C@H]3C[C@@H]12 [Tetracycline] | 38 |  | 40 | 39 |  |  |
| CC[C@H]1OC(=O)[C@H](C)[C@@H](O[C@H]2C[C@@](C)(OC)[C@@H](O)[C@H](C)O2)[C@H](C)[C@@H](O[C@@H]2O[C@H](C)C[C@H](N(C)C)[C@H]2O)[C@](C)(O)C[C@@H](C)C(=O)[C@H](C)[C@@H](O)[C@]1(C)O [Erythromycin] | 36 | Sensitivity | 41 | 39 |  | Sensitivity determination (listed as erythromycin): sensitivity |
| CC1(C)S[C@@H]2[C@H](NC(=O)[C@H](N)c3ccc(O)cc3)C(=O)N2[C@H]1C(=O)O [Amoxicillin] | 20 | Sensitivity | 24 | 23 | mediation | Sensitivity determination (listed as amoxicillin): sensitivity |
| Cc1ncc([N+](=O)[O-])n1CCO [Metronidazole] | 0 | drug resistance | 0 | 0 | drug resistance |  |
| CO/N=C(\C(=O)N[C@@H]1C(=O)N2C(C(=O)O)=C(CSc3nc(=O)c(=O)[nH]n3C)CS[C@H]12)c1csc(N)n1 [Ceftriaxone] | 29 | Sensitivity | 31 | 30 | mediation | Sensitivity determination (listed as ceftriaxone): sensitivity |
| CC[C@H]1OC(=O)[C@H](C)[C@@H](O[C@H]2C[C@@](C)(OC)[C@@H](O)[C@H](C)O2)[C@H](C)[C@@H](O[C@@H]2O[C@H](C)C[C@H](N(C)C)[C@H]2O)[C@](C)(O)C[C@@H](C)CN(C)[C@H](C)[C@@H](O)[C@]1(C)O [Azithromycin] | 31 | Sensitivity | 31 | 30 |  | Sensitivity determination (listed as azithromycin): sensitivity |
| C[C@@H](O)[C@H]1C(=O)N2C(C(=O)O)=C(SCCN=CN)C[C@H]12 [Imipenem] | 40 |  | 40 | 40 |  |  |
